The text below walks through data of ChEMBL document CHEMBL4477199, “Design and synthesis of novel bicalutamide and enzalutamide derivatives as antiproliferative agents for the treatment of prostate cancer” (Eur J Med Chem, 2016).

Some results are limits rather than exact numbers.

In data set [1] the test system is LNCaP. The data set can be described thus: Antiproliferative activity against human LNCAP cells assessed as relative inhibition after 96 hrs by propidium iodide staining based fluorescence 2D monolayer assay. Type of data set: functional, cell-based.
Data set [2] concerns LNCaP. The experiment in a line: Antiproliferative activity against human LNCAP cells after 96 hrs by propidium iodide staining based fluorescence 2D monolayer assay. Type of data set: functional, cell-based.
Data set [3] relates to CWR22R. The experiment in a line: Antiproliferative activity against human 22Rv1 cells after 96 hrs by propidium iodide staining based fluorescence 2D monolayer assay. Particulars: 22Rv1, 96 h. Type of data set: functional, cell-based.
Data set [4] has as its system VCaP. The data set can be described thus: Antiproliferative activity against human VCaP cells assessed as relative inhibition after 96 hrs by propidium iodide staining based fluorescence 2D monolayer assay. Type of data set: functional, cell-based.
Data set [5] has as its system DU-145. The experiment in a line: Antiproliferative activity against human DU145 cells after 96 hrs by propidium iodide staining based fluorescence 2D monolayer assay. It counts as functional, cell-based. The settings on record: DU-145, 96 h.
Data set [6] has as its system CWR22R. The data set can be described thus: Antiproliferative activity against human 22Rv1 cells assessed as relative inhibition after 96 hrs by propidium iodide staining based fluorescence 2D monolayer assay. Type of data set: functional, cell-based. Particulars: 22Rv1, 96 h.
For data set [7] the following is noted: 96 h.
Description: Solubility in RPMI1640 culture medium at <30 uM incubated for 4 days by microscopic analysis
The test system of data set [8] is VCaP. The experiment in a line: Antiproliferative activity against human VCaP cells after 96 hrs by propidium iodide staining based fluorescence 2D monolayer assay. It counts as functional, cell-based.
In data set [9] the test system is DU-145. The experiment in a line: Antiproliferative activity against human DU145 cells assessed as relative inhibition after 96 hrs by propidium iodide staining based fluorescence 2D monolayer assay. The settings on record: DU-145, 96 h. Type of data set: functional, cell-based.
The conditions of data set [10]: 33000 µM.
Description: Solubility in 100% DMSO at 33 mM at -20 degC
Data set [11] concerns the target T1, Androgen receptor (Rattus norvegicus) (UniProt P15207).
T1 sequence (whole entry): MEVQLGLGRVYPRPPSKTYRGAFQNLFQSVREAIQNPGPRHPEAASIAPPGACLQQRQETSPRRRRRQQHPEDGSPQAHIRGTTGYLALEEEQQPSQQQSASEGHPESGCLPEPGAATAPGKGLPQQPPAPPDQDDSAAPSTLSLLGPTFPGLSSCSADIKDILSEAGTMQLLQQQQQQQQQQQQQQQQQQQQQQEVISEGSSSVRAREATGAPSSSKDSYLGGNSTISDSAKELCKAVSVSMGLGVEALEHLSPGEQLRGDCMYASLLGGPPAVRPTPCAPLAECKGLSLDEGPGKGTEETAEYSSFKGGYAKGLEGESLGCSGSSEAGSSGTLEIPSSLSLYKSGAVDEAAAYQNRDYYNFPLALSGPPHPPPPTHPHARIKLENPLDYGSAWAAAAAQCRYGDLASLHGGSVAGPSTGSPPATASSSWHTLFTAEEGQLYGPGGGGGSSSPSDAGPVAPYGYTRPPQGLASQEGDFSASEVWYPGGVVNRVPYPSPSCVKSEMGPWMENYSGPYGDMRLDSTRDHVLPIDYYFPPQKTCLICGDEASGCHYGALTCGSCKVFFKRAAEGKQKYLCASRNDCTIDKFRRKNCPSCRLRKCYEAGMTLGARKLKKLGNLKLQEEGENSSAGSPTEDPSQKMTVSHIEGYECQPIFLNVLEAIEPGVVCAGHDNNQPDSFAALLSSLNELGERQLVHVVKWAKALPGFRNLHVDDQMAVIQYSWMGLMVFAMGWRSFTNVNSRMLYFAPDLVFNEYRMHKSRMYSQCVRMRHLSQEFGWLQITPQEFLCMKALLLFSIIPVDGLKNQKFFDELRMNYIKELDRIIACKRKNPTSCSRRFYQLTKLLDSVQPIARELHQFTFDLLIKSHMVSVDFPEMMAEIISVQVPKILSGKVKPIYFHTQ
The experiment in a line: (§1) Antagonist activity at rat androgen receptor fused with DNA-binding domain of GAL4 expressed in AR-UAS-bla GripTite 293 cells assessed as inhibition of R1881-induced receptor activation preincubated for 30 mins followed by R1881 addition measured after 16 to 24 hrs by betalactamase reporter gene assay. It counts as cell-based. For orientation: Reporter assays use an easily measured gene product as a stand-in for the process of interest.

Another data set addresses T2, Androgen receptor (Rattus norvegicus, UniProt P15207).
T2 sequence (P15207 whole entry): T1 sequence (whole entry)
The description is as §1. It counts as cell-based.

A word on the IC50: it is the concentration that inhibits the measured activity by half. A word on the IC70: it is the concentration needed for an effect of 70%.

On to `CC(O)(CS(=O)(=O)c1ccc(OC(F)(F)F)cc1)C(=O)Nc1ccc([N+](=O)[O-])cc1C(F)(F)F` (centres undefined), for which the IC50 in the data set on LNCaP [1] is over 100 µM; with LNCaP [2] it was at least 100 µM; with CWR22R [3] it was at least 100 µM; with VCaP [4] it was over 100 µM; with DU-145 [5] it was at least 100 µM; in the data set on CWR22R [6], over 100 µM. Besides, the IC50 with VCaP [8] was at least 100 µM; with DU-145 [9], over 100 µM. Also, the IC70 with LNCaP [1], in the data set with LNCaP [2], in the data set on CWR22R [3], in the data set on VCaP [4], in the data set with DU-145 [5] and with CWR22R [6] was over 100 µM each time. Also, the 70% effect concentration (IC70) with VCaP [8] and in the data set with DU-145 [9] was over 100 µM throughout. For the same molecule, the solubility result in data set [7] and in data set [10] was “Soluble” in each case.
Take `CC(O)(COc1ccccc1C(F)(F)F)C(=O)Nc1ccc([N+](=O)[O-])c(C(F)(F)F)c1` (centres undefined): the IC50 in the data set on LNCaP [2] worked out at 22.6 µM; in the data set on CWR22R [3], 20.2 µM; in the data set on DU-145 [5], 35.2 µM; on Androgen receptor, 183 nM; in the data set on VCaP [8], 27.2 µM. Besides, the solubility result in data set [7] and in data set [10] was “Soluble” in each case. Besides, the inhibition entry in data set [11] is “Dose-dependent effect”.
For the molecule `CC(O)(COc1cccc(OC(F)(F)F)c1)C(=O)Nc1ccc([N+](=O)[O-])c(C(F)(F)F)c1` (centres undefined), the concentration for half-maximal inhibition (IC50) was determined as 9.95 µM with LNCaP [2]; 9.31 µM in the data set with CWR22R [3]; 13.1 µM in the data set with DU-145 [5]; 407 nM at Androgen receptor; 9.6 µM with VCaP [8]. Also, the solubility entry in data set [7] and in [10] was “Soluble” each time. Besides, in [11], the inhibition entry was “Dose-dependent effect”.
As for `CC1(C)C(=O)N(c2cccc(C(F)(F)F)c2)C(=O)N1c1ccc([N+](=O)[O-])cc1C(F)(F)F`, the IC50 with LNCaP [2] turned out to be 4.07 µM; in the data set on CWR22R [3] it was 5.01 µM; in the data set with DU-145 [5] it was 7.88 µM; on Androgen receptor, 111 nM; with VCaP [8] it was 13.3 µM. The solubility result in [7] and in [10] was “Soluble” throughout. The inhibition entry in data set [11] is “Dose-dependent effect”.
With `CC(O)(COc1ccc(OC(F)(F)F)cc1)C(=O)Nc1ccc([N+](=O)[O-])c(C(F)(F)F)c1` (centres undefined), the IC50 in the data set on LNCaP [2] was determined as 17.7 µM; in the data set with CWR22R [3] it was 7.53 µM; in the data set on DU-145 [5], 10.4 µM; on Androgen receptor, 625 nM; in the data set with VCaP [8], 19.6 µM. For the same molecule, the solubility entry in data set [7] and in data set [10] was “Soluble” throughout. Besides, the inhibition result in [11] is “Dose-dependent effect”.
As for `CC(O)(CS(=O)(=O)c1ccc(F)cc1)C(=O)Nc1ccc(C#N)c(C(F)(F)F)c1` (centres undefined) [BICALUTAMIDE], the IC50 with LNCaP [1] worked out at 47.3 µM; in the data set on LNCaP [2], 45.3 µM; with CWR22R [3] it was 49.6 µM; with VCaP [4], 64.7 µM; in the data set with DU-145 [5] it was 49.2 µM; in the data set on CWR22R [6] it was 48.5 µM. Besides, the half-maximal inhibitory concentration (IC50) with VCaP [8] came out at 68.4 µM; in the data set with DU-145 [9], 46 µM. The concentration for an effect of 70% (IC70) was 60.9 µM in the data set on LNCaP [1]; 59.1 µM with LNCaP [2]; 65.1 µM in the data set on CWR22R [3]; 97.3 µM in the data set with VCaP [4]; 61.3 µM in the data set with DU-145 [5]; 64.1 µM in the data set with CWR22R [6]. Besides, the values for the IC70 with VCaP [8] and with DU-145 [9] were over 100 µM and 58.3 µM, respectively.
Take `CC1(C)C(=O)N(c2ccc(C(F)(F)F)cc2)C(=O)N1c1ccc([N+](=O)[O-])cc1C(F)(F)F`: the IC50 turned out to be 3.73 µM in the data set with LNCaP [2]; 16.4 µM in the data set with CWR22R [3]; 100 µM in the data set with DU-145 [5]; 265 nM on Androgen receptor; 100 µM in the data set on VCaP [8]. The solubility entry in [7] and in data set [10] was “Soluble” each time. In addition, in [11], the inhibition entry is “Dose-dependent effect”.
